Measurements from patent publication US20090081189A1, “Process for in vitro differentiation of neuronal stem cells or of cells derived from neuronal stem cells” (Axaron Bioscfience Ag, priority 2003, published 2009).

Test system: beta-catenin
Test: Western blot of beta-catenin in adult neuronal stem and progenitor cells after inhibition of the Wnt signal pathway
Type: cell-based, rat
Details: genistein 50 μM, undifferentiated and differentiated, densitometry of Western blot, versus cells without inhibition
Experimental: To inhibit the Wnt signal pathway, the unspecific kinase inhibitor genistein is added at a concentration of 50 μM in order to inhibit the action of glycogen synthase kinase 3 (GSK 3) (Murase S et al., 2002, Neuron, 35, 91-105).
Subsequently, a protein extract (see above, example 1) is prepared and the beta-catenin protein is identified by one dimensional gel electrophoresis and Western blotting (FIG. 3, FIG. 4).
The protein extracts of the adult neuronal stem cells are first fractionated in a 12% polyacrylamide gel in Lammli buffer consisting of 2% (w/v) sodium dodecylsulfate, 10% (v/v) glycerol, 100 mM dithiothreitol, 60 mM Tris-HCl, pH 6.8, 0.001% bromophenol blue and 5% 2-mercaptoethanol and applied to a nitrocellulose membrane (Optitran BA-S83, 0.2 μm, Schleicher & Schnell, Dassel, Germany) by the semi-dry blotting method (Kyhse-Andersen J, 1984, J Biochem Biophys Methods, 10, 203-209). […] Antibody binding is detected by way of chemiluminescent signals. […] The X-ray films are developed and measured densitometrically. […]

Q: For O=c1c(-c2ccc(O)cc2)coc2cc(O)cc(O)c12 [genistein, 4′,5,7-trihydroxyisoflavone], which “reduction of β-catenin expression (factor)” value is on record?
A: ~2
